PMC8540442, “KBE009: A Bestatin-Like Inhibitor of the Trypanosoma cruzi Acidic M17 Aminopeptidase with In Vitro Anti-Trypanosomal Activity” (Life, 2021)

Molecular target: T1, TcLAP (T. cruzi acidic M17 leucyl-aminopeptidase; LAPTc) (Trypanosoma cruzi, UniProt Q4DZJ3)
T1 construct: gene Tc00.1047053508799.240; recombinant TcLAP (rTcLAP)
T1 sequence (Q4DZJ3 1-520): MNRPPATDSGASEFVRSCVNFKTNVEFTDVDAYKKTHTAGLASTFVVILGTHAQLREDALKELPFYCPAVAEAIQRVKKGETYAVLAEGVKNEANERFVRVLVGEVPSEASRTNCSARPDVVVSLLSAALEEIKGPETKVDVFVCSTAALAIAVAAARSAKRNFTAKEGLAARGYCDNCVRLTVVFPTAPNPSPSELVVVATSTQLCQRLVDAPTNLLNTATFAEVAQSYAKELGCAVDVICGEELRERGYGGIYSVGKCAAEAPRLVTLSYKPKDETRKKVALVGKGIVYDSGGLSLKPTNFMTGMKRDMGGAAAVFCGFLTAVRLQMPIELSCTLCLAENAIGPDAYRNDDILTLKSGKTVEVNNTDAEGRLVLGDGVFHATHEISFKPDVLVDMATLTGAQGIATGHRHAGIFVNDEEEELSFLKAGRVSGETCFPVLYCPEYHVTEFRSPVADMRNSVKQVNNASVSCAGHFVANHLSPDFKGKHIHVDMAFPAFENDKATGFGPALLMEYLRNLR
Experiment: continuous chromogenic assay of purified rTcLAP with Leu-pNA at […] nm, […] min preincubation
Type: biochemical

Compound: CC(C)C[C@@H](C(=O)O)N(C(=O)[C@H](N)Cc1ccccc1)C(C(=O)NCc1ccccc1)c1ccco1 (stereo partly shown) [KBE009]
- IC50: 66 ± 13.5 µM
